Patent US8318808B2, “Zn2+chelating motif-tethered short-chain fatty acids as a novel class of histone deacetylase inhibitors” (The Ohio State University Research Foundation, priority 2007, dated 2012)
pIC50: −log10 of the molar value. Like-named read-outs stand apart in the source and are kept apart here.

Experiments:
[1] = tested on: phospho-Akt in PC-3 cells (PTEN-/-); assay: Activation status of Akt in PC-3 cells; format: cell-based; conditions: comparable concentrations
Description: The effect of these agents on the activation status of Akt in PC-3 cells (PTEN^−/−) was also examined. Akt is constitutively activated in PC-3 cells due to lack of functional PTEN, which contributes to the androgen independency and chemotherapeutic resistance of these cells.

[2] = Toxicity, body weights and pathological evaluation of treated tumor-bearing mice; format: in vivo, NCr athymic nude mice (nu/nu); conditions: for body weights: measured weekly, compound 42 or 44 oral 50 and 100 mg/kg/day, SAHA i.p. 50 mg/kg/day
Procedure: At the conclusion of the study, complete pathological evaluation of one mouse from each treatment group was performed by board-certified veterinary pathologists at The Ohio State University College of Veterinary Medicine, which included clinical pathology (hematology, serum chemistries) and complete necropsy (gross and microscopic examination of at least 27 different tissues and organs). […] Hematological parameters were within normal limits except for a neutrophilia, which was observed only in mice from both vehicle-treated control groups and the SAHA- and compound 44 (50 mg/kg)-treated groups. Serum chemistry values were consistent with mild dehydration in the vehicle-treated mice, but were within normal limits for all other mice.

[3] = tested on: acetylation of histone H-3 in PC-3 xenograft tumors; assay: Western blot of acetylated histone H3 in PC-3 xenograft tumor homogenates; format: in vivo, mice; conditions: 28 days
[4] = tested on: PC-3 xenograft tumors; assay: Growth of established subcutaneous PC-3 xenograft tumors; conditions: for reduction in the growth of the tumors vs vehicle-treated control: 50 mg/kg/day; for suppression of growth of established PC-3 tumors: oral route, 50 and 100 mg/kg/day (either dose)
Procedure: In the in vivo experiment, PC-3 cells, suspended in equal volumes of serum-free medium and Matrigel basement membrane matrix, were injected subcutaneously into the flanks of 5-7 week old male NCr athymic nude mice (nu/nu) (0.5×10^6 cells/0.1 ml/mouse). […] The control group received p.o. or i.p. vehicle only (0.1% methylcellulose/0.05% Tween 80 in water and DMSO, respectively). Treatments continued until the mean tumor volume of the control group reached approximately 1,500 mm^3. Tumors were measured every week using Vernier calipers and their volumes calculated using a standard formula: width^2×length×0.52.

[5] = tested on: acetylated histones H3 and H4 and p21WAF/CIP1 in DU-145 cells; assay: Western blot of histone acetylation and p21WAF/CIP1 expression in DU-145 cells; format: cell-based; conditions: for levels of acetylated histones H3 and H4, and p21WAF/CIP1: 10% FBS, HTPB 0.5-[…], TSA 0.25-0.5 μM, phenylbutyrate 1-5 mM
Procedure: Western blot analysis. DU-145 cells (1×10^6) treated with HTPB at the indicated concentrations in 10% FBS-supplemented RPMI 1640 medium for 24 h were collected, and sonicated. Protein concentrations of the lysates were determined by using a Bradford protein assay kit (Bio-Rad, Hercules, Calif.); equivalent amounts of proteins from each lysate were resolved in 10% SDS-polyacrylamide gel, and then transferred onto Immobilon-nitrocellulose membranes (Millipore, Bellerica, Mass.) in a semi-dry transfer cell. The transblotted membrane was washed twice with Tris-buffered saline (TBS) containing 0.1% Tween 20 (TBST). After blocking with TBST containing 5% nonfat milk for 40 min, the membrane was incubated with the primary antibody (1:1000 dilution) in TBST-1% nonfat milk at 4° C. overnight. After treatment with the primary antibody, the membrane was washed three times with TBST for a total of 15 min, followed by goat anti-rabbit or anti-mouse IgG-horseradish peroxidase conjugates (diluted 1:3000) for 1 h at room temperature and wash three times with TBST for a total of 1 h. The immunoblots were visualized by enhanced chemiluminescence.
DU-145 cells were exposed to HTPB at 0.5, 1, 2.5 μM, TSA at 0.25 and 0.5 μM, or phenylbutyrate at 1, 2.5, and 5 mM in 10% FBS-supplemented RPMI 1640 medium for 24 h. […] The effect of 1 μM HTPB on these biomarkers approximated that of 0.25 μM TSA, or 2.5 mM phenylbutyrate.

[6] = molecular target: histone deacetylase (HDAC) activity of DU-145 nuclear extract; assay: In vitro HDAC assay (histone deacetylase assay kit, [3H]-acetyl histone H4 peptide); format: biochemical
Procedure: In vitro HDAC assay. HDAC activity was analyzed by using a histone deacetylase assay kit (Upstate Biotechnology, Lake Placid, N.Y.) by following the manufacturer's instruction with slight modifications. […] The release of [^3 H]-acetate into the supernatant was measured to calculate the HDAC activity. Sodium butyrate (0.25-1 mM) was used as a positive control.

[7] = tested on: DU-145 cells; assay: Cell viability assay (MTT); format: cell-based; conditions: Homo sapiens, 10% FBS-supplemented RPMI-1640, read-out: IC50 in growth inhibition
Procedure: Cell viability assay. The effect of HTPB on cell viability was assessed by the MTT {[3-(4,5-dimethylthiazol-2-yl)-2,5-diphenyl-2 H-tetrazolium bromide]} assay in 96-well, flat-bottomed plates, in which 4,000 DU-145 cells/well were seeded. Cells were exposed to HTPB at the indicated concentrations in 10% FBS-supplemented RPMI-1640 medium at 37° C. in 5% CO2 for the indicated time. The medium was removed and replaced by 150 μl of 0.5 mg/ml of MTT in RPMI-1640 medium, and cells were incubated in the CO2 incubator at 37° C. for 2 hours. Supernatants were removed from the wells, and the reduced MTT dye was solubilized with 200 μl/well DMSO. Absorbance was determined on a plate reader at 570 nm. Each treatment was repeated in six wells.

[8] = tested on: DU-145 cells; assay: Apoptosis detection by Cell Death ELISA (nucleosomal DNA); format: cell-based
Procedure: Apoptosis Detection by An Enzyme-Linked Immunosorbent Assay (ELISA). Induction of apoptosis was assessed by using a Cell Death ELISA (Roche Diagnostics, Mannheim, Germany) by following the manufacturer's instruction. This test is based on the quantitative determination of cytoplasmic histone-associated DNA fragments in the form of mononucleosomes and oligonucleosomes after induced apoptotic death. In brief, 1×10^6 DU-145 cells were cultured in a T-75 flask 24 h prior to the experiment. Cells were treated with HTPB at the indicated concentrations in 10% FBS-supplemented RPMI 1640 medium. Both floating and adherent cells were collected, cell lysates equivalent to 2×10^3 cells were used in the ELISA.

[9] = tested on: ERKs; assay: Phosphorylation level of ERKs in PC-3 cells; format: cell-based
Description: (§1) This dephosphorylating effect, however, is kinase-specific.

[10] = tested on: FAK (focal adhesion kinase); assay: Phosphorylation level of FAK in PC-3 cells; format: cell-based
Description: as §1

[11] = tested on: JNK; assay: Phosphorylation level of JNK in PC-3 cells; format: cell-based
Description: as §1

[12] = tested on: PC-3 cells; assay: cells; conditions: Homo sapiens, PC-3, 72 h, read-out: IC50, PC-3 cell proliferation
[13] = tested on: chronic lymphocytic leukemia (TLC-1 transgenic mouse model); assay: Pilot in vivo study in TLC-1 transgenic mouse model; conditions: 100 mg/kg oral gavage, 5 days on/two days off for 4 weeks
[14] = tested on: 60 cell lines; assay: Sixty-cell line screening by the NCI Developmental Therapeutics Program; format: cell-based; conditions: average against all 60 cell lines; read-out: average GI50 (50% inhibition of cell growth)
[15] = tested on: p38; assay: Phosphorylation level of p38 in PC-3 cells; format: cell-based
Description: as §1

[16] = i.p., 50 mg/kg/day, one mouse per group
[17] = DU-145 nuclear extract, read-out: HDAC inhibition IC50
[18] = DU-145 nuclear extract, running text, read-out: HDAC inhibition IC50
[19] = Table 1, representative phenylbutyrate-based HDAC inhibitors, read-out: IC50
[20] = parent short-chain fatty acid, read-out: HDAC inhibition IC50

O=C(CCCCCCC(=O)Nc1ccccc1)NO [SAHA, suberoylanilide hydroxamic acid, reference compound]
effect on phospho-Akt [1]: no appreciable effect | gross pathologic abnormalities at necropsy [2, 16]: small adhesions in the peritoneum | hematological parameters [2, 16]: neutrophilia | body weights [2]: stable throughout the study | acetylation level of histone H3 in PC-3 tumors ([3]; i.p., 50 mg/kg/day): significant increase | reduction in the growth of the tumors vs vehicle-treated control ([4]; i.p.): 69.9%

CC(/C=C/C(=O)NO)=C\[C@@H](C)C(=O)c1ccc(N(C)C)cc1 [TSA, trichostatin A]
concentration with approximately equal effect on acetylated histones H3/H4 and p21WAF/CIP1 ([5]; 24 h): 0.25 µM | levels of acetylated histones H3 and H4, and p21WAF/CIP1 ([5]; 24 h): elevated levels

CCCC(CCC)C(=O)Nc1ccc(CCC(=O)NO)cc1 [compound 8]
pIC50 [6, 17]: 5.30

O=C(CCCc1ccccc1)Nc1ccc(C(=O)NO)cc1 [compound 19, N-Hydroxy-4-(4-phenylbutyrylamino)-benzamide]
pIC50 [7]: 6.00 to 6.30 | drug concentration above which extensive apoptosis occurred ([8]; 24 h): exceeded 1 μM | apoptosis (DNA fragmentation) ([8]; 24 h exposure): sensitized DU-145 cells to apoptosis in a dose-dependent manner | pIC50 [6, 17]: 7.36 | pIC50 [6, 18]: 7.36 | pIC50 [6, 19]: 7.36 | concentration causing hyperacetylation of histones H-3 and H-4 (as low as) [5]: ≤ 0.5 µM | concentration at which p21WAF/CIP1 level increased substantially (as low as) ([5]; 24 h): ≤ 0.5 µM | concentration with approximately equal effect on acetylated histones H3/H4 and p21WAF/CIP1 ([5]; 24 h): 1 µM | levels of acetylated histones H3 and H4, and p21WAF/CIP1 ([5]; 24 h): elevated levels

CC(C)C(C(=O)Nc1ccc(C(=O)NO)cc1)c1ccccc1 (stereo not drawn) [compound 42, N-Hydroxy-4-(3-methyl-2-phenyl-butyrylamino)-benzamide]
phosphorylation level of ERKs [9]: diminished in a dose-dependent manner | phosphorylation level of FAK [10]: diminished in a dose-dependent manner | phosphorylation level of JNK [11]: remained unaffected | pIC50 [12]: 6.22 | survival [13]: trend toward improved survival | toxicity [13]: no notable toxicity | GI50 [14]: 200 nM | phosphorylation level of p38 [15]: remained unaffected | toxicity in tumor-bearing mice ([2]; 28-day course at 50 or 100 mg/kg/day): no demonstrable toxicity | body weights [2]: stable throughout the study | overt toxicity (body weights and pathological examination) ([2]; oral, 100 mg/kg/day): absence of overt toxicity | acetylation level of histone H3 in PC-3 tumors ([3]; oral, 50 or 100 mg/kg/day): significant increase | oral bioavailability ([4]; mouse, in vivo, po): orally bioavailable | suppression of growth of established PC-3 tumors [4]: effective | reduction in the growth of the tumors vs vehicle-treated control ([4]; oral): 70.4% | reduction in PC-3 tumor growth ([4]; oral, 100 mg/kg/day): 91.7%

CC(C)(CCc1ccccc1)C(=O)Nc1ccc(C(=O)NO)cc1 [compound 44, 4-(2,2-Dimethyl-4-phenyl-butyrylamino)-N-hydroxy-benzamide]
pIC50 [12]: 6.10 | pIC50 [6, 18]: 7.49 | body weights [2]: stable throughout the study | hematological parameters ([2]; oral, 50 mg/kg, one mouse per group): neutrophilia | suppression of growth of established PC-3 tumors [4]: effective

Nc1ccccc1NC(=O)c1ccc(NC(=O)CCCc2ccccc2)cc1 [compound 55, N-(2-Amino-phenyl)-4-(4-phenyl-butyrylamino)-benzamide]
pIC50 [6, 17]: 6.40 | drop in HDAC inhibitory potency when hydroxamate of compound 19 is replaced by phenylenediamine ([6]; relative to compound 19): 10 fold

CC[C@@H](C(=O)Nc1ccc(C(=O)NO)cc1)c1ccccc1 [compound 61, N-hydroxy-4-[2-(R)-phenylbutyrylamino]-benzamide]
pIC50 [6, 19]: 7.42

CCCC(CCC)C(=O)O [valproic acid, reference compound]
pIC50 [6, 20]: 3.40

phenylbutyrate
pIC50 [6, 20]: 3.40 | concentration required for the same effects on histone acetylation and p21WAF/CIP1 expression [5]: at least 2.5 mM | concentration with approximately equal effect on acetylated histones H3/H4 and p21WAF/CIP1 ([5]; 24 h): 2500 µM | levels of acetylated histones H3 and H4, and p21WAF/CIP1 ([5]; 24 h): elevated levels
